In brackets after ≈: the same amount, converted by molar mass. Read-outs that look alike come from different tables or passages of the source. Blank lines part the entries; values can stand above or below the compound they belong to.
Columns and labels:
Human DHODH = Human DHODH (Homo sapiens (Human), UniProt Q02127); test: DHODH kinetic analysis (DCIP assay); format: biochemical; conditions: 25° C.
in vitro = conditions: human
Mouse DHODH = Mouse DHODH (Mus musculus (Mouse), UniProt O35435); test: DHODH kinetic analysis (DCIP assay); format: biochemical; conditions: 25° C.
Rat DHODH = Rat DHODH (Rattus norvegicus (Rat), UniProt Q63707); test: DHODH kinetic analysis (DCIP assay); format: biochemical; conditions: 25° C.
Dog DHODH [1] = target: T1, Dog DHODH (Canis lupus familiaris, UniProt A0A8I3MWX2); test: biochemical
P. falciparum DHODH = P. falciparum DHODH (Plasmodium falciparum (isolate 3D7), UniProt Q08210); format: biochemical; conditions: 25° C., DCIP assay
P. vivax DHODH = P. vivax DHODH (Plasmodium vivax, UniProt A5K1N1); test: biochemical; format: biochemical
Dog DHODH [2] = target: T1, Dog DHODH; conditions: read-out: Dog DHODH IC50; 25° C., DCIP assay
[3] = tested on: parasitized human erythrocytes; test: in vivo efficacy in the humanized SCID mouse model; conditions: for DOR (day of recrudescence): 50 mg/kg dose b.i.d. for 6 days; for CED90: estimated average blood concentration that induces no net parasite growth
[4] = tested on: P. falciparum clinical isolates; conditions: ex vivo, separate study in Indonesia, previously reported; cited from earlier work
[5] = tested on: P. vivax clinical isolates; conditions: ex vivo, separate study in Indonesia, previously reported; cited from earlier work
P. falciparum 3D7 = test: P. falciparum growth and inhibition assay (SYBR Green); format: cell-based; conditions: chloroquine-sensitive 3D7 strain, 72 h, albuMAX media
[6] = metabolic stability, Human Clint
physchem = conditions: pH 6.5, fassif
[7] = 25° C., DCIP assay, read-out: P. vivax DHODH IC50

Chain of Mouse DHODH (O35435 whole entry): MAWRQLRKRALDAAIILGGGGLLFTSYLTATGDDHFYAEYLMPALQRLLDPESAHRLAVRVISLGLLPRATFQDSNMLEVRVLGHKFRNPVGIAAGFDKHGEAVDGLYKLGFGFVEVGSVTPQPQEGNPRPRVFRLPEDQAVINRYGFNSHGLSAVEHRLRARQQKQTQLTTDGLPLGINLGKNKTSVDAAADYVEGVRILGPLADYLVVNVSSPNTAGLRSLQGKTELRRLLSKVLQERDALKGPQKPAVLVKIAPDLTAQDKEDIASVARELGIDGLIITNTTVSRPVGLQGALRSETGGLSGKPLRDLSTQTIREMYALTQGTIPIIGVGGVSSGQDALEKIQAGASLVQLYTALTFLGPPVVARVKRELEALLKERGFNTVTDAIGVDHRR
Chain of Human DHODH (Q02127 whole entry): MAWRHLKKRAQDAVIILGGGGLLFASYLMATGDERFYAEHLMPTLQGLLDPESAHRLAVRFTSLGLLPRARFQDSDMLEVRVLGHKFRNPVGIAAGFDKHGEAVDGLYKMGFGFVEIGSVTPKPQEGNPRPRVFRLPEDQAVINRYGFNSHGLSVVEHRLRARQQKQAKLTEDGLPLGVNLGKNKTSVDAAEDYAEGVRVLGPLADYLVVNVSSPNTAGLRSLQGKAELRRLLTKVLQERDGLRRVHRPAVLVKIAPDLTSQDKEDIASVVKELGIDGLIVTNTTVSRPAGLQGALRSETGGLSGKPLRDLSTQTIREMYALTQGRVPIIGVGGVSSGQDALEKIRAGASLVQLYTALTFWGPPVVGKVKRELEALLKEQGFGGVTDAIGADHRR
Chain of Rat DHODH (Q63707 whole entry): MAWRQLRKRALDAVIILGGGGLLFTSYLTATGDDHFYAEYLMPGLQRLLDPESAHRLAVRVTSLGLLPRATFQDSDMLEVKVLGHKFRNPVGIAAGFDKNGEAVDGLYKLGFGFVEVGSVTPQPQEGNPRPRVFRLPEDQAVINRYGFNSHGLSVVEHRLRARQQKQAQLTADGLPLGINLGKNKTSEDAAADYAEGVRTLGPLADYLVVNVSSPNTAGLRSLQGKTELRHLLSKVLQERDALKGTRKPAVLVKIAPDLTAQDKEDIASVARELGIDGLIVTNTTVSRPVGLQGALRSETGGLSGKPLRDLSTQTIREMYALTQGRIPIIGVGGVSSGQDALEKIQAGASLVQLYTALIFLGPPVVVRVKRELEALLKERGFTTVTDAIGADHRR
T1 sequence (A0A8I3MWX2 1-406): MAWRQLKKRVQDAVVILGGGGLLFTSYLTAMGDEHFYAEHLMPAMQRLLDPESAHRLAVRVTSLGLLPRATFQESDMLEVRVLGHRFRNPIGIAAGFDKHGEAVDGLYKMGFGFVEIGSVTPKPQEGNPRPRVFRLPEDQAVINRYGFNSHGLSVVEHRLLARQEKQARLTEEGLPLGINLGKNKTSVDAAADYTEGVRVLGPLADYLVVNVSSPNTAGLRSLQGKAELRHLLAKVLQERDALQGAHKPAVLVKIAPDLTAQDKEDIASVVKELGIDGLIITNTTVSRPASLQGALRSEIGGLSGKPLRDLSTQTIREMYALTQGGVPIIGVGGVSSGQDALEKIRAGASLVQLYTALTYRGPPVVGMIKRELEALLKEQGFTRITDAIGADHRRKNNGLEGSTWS
Chain of P. falciparum DHODH (Q08210 24-569 limits assumed): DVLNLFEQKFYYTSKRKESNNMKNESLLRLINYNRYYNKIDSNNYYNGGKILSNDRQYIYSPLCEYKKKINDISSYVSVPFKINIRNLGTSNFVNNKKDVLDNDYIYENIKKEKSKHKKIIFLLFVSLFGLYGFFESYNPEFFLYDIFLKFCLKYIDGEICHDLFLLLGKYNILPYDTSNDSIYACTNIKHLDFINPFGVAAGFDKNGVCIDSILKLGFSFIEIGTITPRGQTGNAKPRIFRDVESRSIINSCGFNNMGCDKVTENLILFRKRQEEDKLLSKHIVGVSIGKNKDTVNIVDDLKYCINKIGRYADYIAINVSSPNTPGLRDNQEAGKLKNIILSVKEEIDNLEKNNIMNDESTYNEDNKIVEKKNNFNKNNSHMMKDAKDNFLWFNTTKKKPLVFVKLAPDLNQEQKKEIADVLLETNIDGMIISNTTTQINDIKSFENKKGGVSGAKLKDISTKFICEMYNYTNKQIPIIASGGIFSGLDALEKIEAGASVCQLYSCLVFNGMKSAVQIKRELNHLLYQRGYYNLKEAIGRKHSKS
Chain of P. vivax DHODH (A5K1N1 1-572): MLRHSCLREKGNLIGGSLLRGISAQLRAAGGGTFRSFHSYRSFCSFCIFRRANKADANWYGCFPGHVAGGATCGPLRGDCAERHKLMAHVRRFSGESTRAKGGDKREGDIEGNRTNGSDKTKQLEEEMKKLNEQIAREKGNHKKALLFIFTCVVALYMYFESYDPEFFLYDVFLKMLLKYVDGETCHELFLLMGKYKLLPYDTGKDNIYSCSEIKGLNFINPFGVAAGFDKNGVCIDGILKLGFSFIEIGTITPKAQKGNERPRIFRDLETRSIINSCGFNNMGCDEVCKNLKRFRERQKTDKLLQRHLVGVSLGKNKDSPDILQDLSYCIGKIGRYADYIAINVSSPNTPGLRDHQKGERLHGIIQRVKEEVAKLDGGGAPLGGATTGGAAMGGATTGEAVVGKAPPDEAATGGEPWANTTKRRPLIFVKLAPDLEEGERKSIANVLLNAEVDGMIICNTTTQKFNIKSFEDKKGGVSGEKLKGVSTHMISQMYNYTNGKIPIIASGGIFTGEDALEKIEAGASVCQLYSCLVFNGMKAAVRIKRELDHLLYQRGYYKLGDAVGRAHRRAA

Compound: Cc1c(C2(c3ccc(C(F)(F)F)nc3)CC2)c[nH]c1C(=O)NC(C)c1cn[nH]c1 (single isomer, unassigned) [Compound 8, N-(1-(1H-pyrazol-4-yl)ethyl)-3-methyl-4-(1-(6-(trifluoromethyl)pyridin-3-yl)cyclopropyl)-1H-pyrrole-2-carboxamide]
IC50 (Human DHODH): > 100 µM | microsomal CLint (in vitro): 66 µL/min/mg

Compound: Cc1cc(C(C)NC(=O)c2[nH]cc(Cc3ccc(C(F)(F)F)nc3)c2C)no1 (single isomer, unassigned) [Compound 29, 3-methyl-N-(1-(5-methylisoxazol-3-yl)ethyl)-4-((6-(trifluoromethyl)pyridin-3-yl)methyl)-1H-pyrrole-2-carboxamide]
IC50 (Human DHODH): > 100 µM | IC50 (Mouse DHODH): > 100 µM | IC50 (Rat DHODH): > 100 µM | microsomal CLint (in vitro): 29 µL/min/mg | IC50 (Dog DHODH [1]): > 100 µM

Compound: Cc1cc(C(C)NC(=O)c2[nH]cc(C3(c4ccc(C(F)(F)F)nc4)CC3)c2C)n[nH]1 (single isomer, unassigned) [Compound 11, 3-methyl-N-[1-(5-methyl-1H-pyrazol-3-yl)ethyl]-4-{1-[6-(trifluoromethyl)pyridine-3-yl]cyclopropyl}-1H-pyrrole-2-carboxamide]
IC50 (Human DHODH): > 100 µM | microsomal CLint (in vitro): 40 µL/min/mg

Compound: Cc1c(C2(c3ccc(C(F)(F)F)nc3)CC2)c[nH]c1C(=O)NC(C)c1cc(C(N)=O)[nH]n1 (stereo not drawn) [Compound 14]
IC50 (P. falciparum DHODH): 0.14 ± 0.057 µM | IC50 (P. vivax DHODH; [7]): 0.17 µM | IC50 (Human DHODH): > 100 µM | IC50 (Mouse DHODH): > 100 µM | IC50 (Rat DHODH): > 100 µM | IC50 (Dog DHODH [2]): > 100 µM

Compound: Cc1c(C2(c3ccc(C(F)(F)F)nc3)CC2)c[nH]c1C(=O)NC(C)c1c[nH]cn1 (single isomer, unassigned) [Compound 20, N-(1-(1H-imidazol-4-yl)ethyl)-3-methyl-4-(1-(6-(trifluoromethyl)pyridin-3-yl)cyclopropyl)-1H-pyrrole-2-carboxamide]
IC50 (Human DHODH): > 100 µM | microsomal CLint (in vitro): 35 µL/min/mg

Compound: Cc1c(C2(c3ccc(C(F)(F)F)nc3)CC2)c[nH]c1C(=O)NC(C)c1nc[nH]n1 (single isomer, unassigned) [Compound 2, 3-methyl-N-[1-(1H-1,2,4-triazol-3-yl)ethyl]-4-{1-[6-(trifluoromethyl)pyridin-3-yl]cyclopropyl}-1H-pyrrole-2-carboxamide]
IC50 (Human DHODH): > 100 µM | IC50 (Mouse DHODH): > 100 µM | IC50 (Rat DHODH): > 100 µM | DOR (day of recrudescence) ([3]; SCID mouse): 22 | AUCED90 ([3]; SCID mouse, b.i.d. for 6 days): 35.6 μM · h/day | CED90 ([3]; SCID mouse, b.i.d. for 6 days): 1.48 µM/day | ED90 ([3]; mouse, in vivo): 25.6 mg/kg | microsomal CLint (in vitro): 11 µL/min/mg | IC50 (Dog DHODH [1]): > 100 µM

FaSSIF Solubility pH 6.5 5 h (FaSSIF, pH 6.5, 5 h): 5.1 μg/ml | microsomal CLint (in vitro): < 7 µL/min/mg
Compound: Cc1cc(Nc2ccc(S(F)(F)(F)(F)F)cc2)n2nc(C(C)(F)F)nc2n1 [DSM265, 2-(1,1-difluoroethyl)-5-methyl-N-[4-(pentafluoro-λ^6-sulfanyl)phenyl]-[1,2,4]triazolo[1,5-a]pyrimidin-7-amine, reference compound]
DOR (day of recrudescence) ([3]; SCID mouse): 21 | AUCED90 ([3]; SCID mouse, b.i.d. for 6 days): 35.4 μM · h/day | ED90 ([3]; SCID mouse, b.i.d. for 6 days, clears 90% of parasites 24 h post final dose on day 7): 16.7 mg/kg | CED90 ([3]; SCID mouse, b.i.d. for 6 days): 1.48 µM/day | EC50 [4]: 0.19 µM | EC50 [5]: 0.92 µM

Compound: Cc1c(C2(c3ccc(C(F)(F)F)nc3)CC2)c[nH]c1C(=O)NC(C)c1cc(C#N)[nH]n1 (single isomer, unassigned) [Compound 17, N-(1-(5-cyano-1H-pyrazol-3-yl)ethyl)-3-methyl-4-(1-(6-(trifluoromethyl)pyridin-3-yl)cyclopropyl)-1H-pyrrole-2-carboxamide]
IC50 (Human DHODH): > 100 µM | microsomal CLint (in vitro): 16 µL/min/mg

Compound: N-(1-(1H-1,2,4-triazol-3-yl) ethyl)-4-(3-fluoro-4-(trifluoromethyl)benzyl)-3-methyl-1H-pyrrole-2-carboxamide [Compound 5]
IC50 (P. falciparum DHODH): 0.11 µM | IC50 (P. vivax DHODH; [7]): 0.061 µM | IC50 (Human DHODH): > 100 µM | EC50 (P. falciparum 3D7): 0.039 µM

Compound: Cc1c(Cc2ccc(C(F)(F)F)nc2)c[nH]c1C(=O)NC(C)c1cn[nH]c1 (stereo not drawn) [Compound 32]
IC50 (P. falciparum DHODH): 0.047 ± 0.0079 µM | IC50 (P. vivax DHODH; [7]): 0.043 µM | IC50 (Human DHODH): > 100 µM | IC50 (Mouse DHODH): > 100 µM | IC50 (Rat DHODH): > 100 µM | FaSSIF Solubility pH 6.5 5 h (pH 6.5): 34 μg/ml | IC50 (Dog DHODH [2]): > 100 µM | Human Clint [6]: 20 μL/min/mg protein

Compound: Cc1c(Cc2ccc(C(F)(F)F)nc2)c[nH]c1C(=O)NC(C)c1cnn(C)c1 (single isomer, unassigned) [Compound 35, 3-methyl-N-(1-(1-methyl-1H-pyrazol-4-yl)ethyl)-4-((6-(trifluoromethyl)pyridin-3-yl)methyl)-1 H-pyrrole-2-carboxamide]
IC50 (P. vivax DHODH): 0.036 µM | IC50 (Human DHODH): > 100 µM | IC50 (Mouse DHODH): > 100 µM | IC50 (Rat DHODH): > 100 µM | solubility (physchem): 60 µg/mL (≈ 153 µM) | IC50 (Dog DHODH [1]): > 100 µM
